Reference: paper PMC6968775, “Assessment of contribution of BCRP to intestinal absorption of various drugs using portal‐systemic blood concentration difference model in mice” (Pharmacology Research & Perspectives, 2020)
“And” between values parts separate entries of the source, which are not always exact repeats. Identical values can stand only once. Counter-ions that a name gives are not always drawn.

Columns and labels:
[1] = Pharmacokinetics after iv and oral administration, P‐S difference method, wild‐type mice; type: in vivo; conditions: for half-life / AUC(0-inf) / Cmax / Tmax: 1 mg/kg
Method: (§1) Male Mdr1a/1b(−/−) and Bcrp(−/−) mice, and WT mice of the same genetic background (FVB) were obtained from Taconic Farms (Germantown, NY, USA). […] Food and water were available ad libitum. All experiments were carried out in accordance with the principles and procedures outlined in the National Institutes of Health Guide for the Care and Use of Laboratory.
(§2) All the mice were fasted overnight with free access to tap water. In the intravenous administration studies, model compounds were administered via the tail vein at doses of 1 mg/kg (n = 3). Following administration, blood samples were collected from the abdominal vein of the anesthetized mice at 0.083, 0.17, 0.5, 1, 2, 4, and 8 hours. […] Following administration, blood samples were taken from the portal and abdominal veins of the anesthetized mice at 0.083, 0.17, 0.5, 1, 2, 4, and 8 hours. The plasma samples were separated by centrifugation at 14 000g for 10 minutes at 4°C and stored at −30°C until analysis.
(§3) After organic layer was evaporated at 60°C, the resultant residues were dissolved in a mobile phase. For the determination of topotecan and sulfasalazine, plasma samples were mixed with acetonitrile, centrifuged at 750 g for 10 minutes at 4°C, and the supernatants were collected. After the evaporation of the supernatants, the residues were dissolved in a mobile phase, and acidified with phosphoric acid for topotecan. All drugs were analyzed by HPLC system (Shimadzu LC‐10AS pump, Shimadzu SIL‐10A autosampler) equipped with a reverse‐phase column (COSMOSIL 5C18‐AR‐II, 3.5‐μm […], 4.6 × 150 mm).
(§4) Elimination rate constant (k e) was determined by the least squares regression analysis of plasma concentration vs time curve. Elimination half‐life (t 1/2) was calculated using Eq.1:(1) t1/2=ln2/ke
(§5) Area under plasma concentration‐time curve (AUC) and area under the first moment curve (AUMC) from time 0 to infinity were calculated by trapezoidal rule.
(§6) Absorption rate constant (k a) after oral administration was calculated by the nonlinear least squares fitting with program MULTI.12
(§7) BA was calculated by Eq.5:(7) BA=AUCoral/AUCiv×Doseiv/Doseoral×100 where AUCoral is AUC after oral administration. Doseiv and Doseoral are administered dose in the intravenous and oral administration study, respectively.
(§8) Hepatic availability (F h) was calculated by Eq.6:(8) Fh=F/Fa×Fg

[2] = Pharmacokinetics after iv and oral administration, P‐S difference method, Bcrp(−/−) mice; type: in vivo
Method: as §1, §2, §3, §4, §5, §6, §7, §8

[3] = Pharmacokinetics after iv and oral administration, P‐S difference method, Mdr1a/1b(−/−) mice; type: in vivo
Method: as §1, §2, §3, §4, §5, §6, §7, §8

[4] = Blood/plasma concentration ratio (R b) in fresh whole blood; type: in vitro ADME, FVB mice; conditions: fresh whole blood, FVB mouse whole blood, 37°C
Method: Similarly, the model compounds were added to plasma, and reference blood samples were obtained according to the same procedure. These concentrations of drugs in each sample were analyzed using HPLC (C B and C P, respectively). R b value was calculated by dividing C B by C P.

BCRP [5] = assay: Human AQBCRP estimated from the clinical data; type: in vivo
BCRP [6] = conditions: calculated from k a in WT, Bcrp(−/−) and Mdr1a/1b(−/−) mice (Eq. 9)
P‐gp [7] = tested on: P‐gp
P‐gp [8] = conditions: Caco‐2 permeability study; unpublished data; ref Fujita et al, manuscript in preparation; cited from earlier work
[9] = cited from earlier work
[10] = male, FVB (wild-type), mouse, portal vein plasma, po
[11] = male, FVB (wild-type), mouse, systemic plasma (abdominal vein), po
[12] = wild‐type mice, p.o. (ciprofloxacin 1, nitrofurantoin 2, topotecan 1, sulfasalazine 5 mg/kg)
[13] = Bcrp(−/−) mice, p.o. (ciprofloxacin 1, nitrofurantoin 2, topotecan 1, sulfasalazine 5 mg/kg)
[14] = male, Bcrp(−/−) (FVB background), mouse, portal vein plasma, po, 1 mg/kg
[15] = male, Bcrp(−/−) (FVB background), mouse, systemic plasma (abdominal vein), po, 1 mg/kg
[16] = Mdr1a/1b(−/−) mice, p.o. (ciprofloxacin 1, nitrofurantoin 2, topotecan 1, sulfasalazine 5 mg/kg)
[17] = male, Mdr1a/1b(−/−) (FVB background), mouse, portal vein plasma, po, 1 mg/kg
[18] = male, Mdr1a/1b(−/−) (FVB background), mouse, systemic plasma (abdominal vein), po, 1 mg/kg

CC[C@@]1(O)C(=O)OCc2c1cc1n(c2=O)Cc2cc3c(CN(C)C)c(O)ccc3nc2-1 [topotecan, Topotecan HCl]
k a, wt ([1]; Table 5 summary, WT mice, oral administration): 3.18 | (F a F g) wt ([1]; as fraction, WT mice, oral administration): 0.57 | clearance ([1]; male, FVB (wild-type), mouse, plasma (systemic, abdominal vein), wild‐type mice, iv 1 mg/kg, read-out: CL tot (converted)): 36.7 mL/min/kg | Vd ([1]; male, FVB (wild-type), mouse, plasma (systemic, abdominal vein), wild‐type mice, iv 1 mg/kg, read-out: Vdss): 2.59 L/kg | half-life ([1]; male, FVB (wild-type), mouse, plasma, iv, wild‐type mice, iv 1 mg/kg): 75.6 min | AUC(0-inf) ([1]; male, FVB (wild-type), mouse, plasma, iv, wild‐type mice, iv 1 mg/kg, read-out: AUC 0→∞): 0.994 µM·h | Cmax [1, 10]: 720 nM | Tmax [1, 10]: 4.8 min | AUC(0-inf) ([1]; male, FVB (wild-type), mouse, portal vein plasma, po, wild‐type mice, p.o. (ciprofloxacin 1, nitrofurantoin 2, topotecan 1, sulfasalazine 5 mg/kg), portal vein (pv) plasma, read-out: AUC 0→∞ (AUCpv)): 0.577 µM·h | Cmax [1, 11]: 218 nM | Tmax [1, 11]: 30 min | half-life ([1]; male, FVB (wild-type), mouse, systemic plasma (abdominal vein), po, wild‐type mice, p.o. (ciprofloxacin 1, nitrofurantoin 2, topotecan 1, sulfasalazine 5 mg/kg), systemic (sys) plasma): 62.4 min | AUC(0-inf) ([1]; male, FVB (wild-type), mouse, systemic plasma (abdominal vein), po, wild‐type mice, p.o. (ciprofloxacin 1, nitrofurantoin 2, topotecan 1, sulfasalazine 5 mg/kg), systemic (sys) plasma, read-out: AUC 0→∞ (AUCsys)): 0.37 µM·h | F h [1, 12]: 65.6% | k a [1, 12]: 3.18 h⁻¹ | F a F g ([1]; wild‐type mice, p.o. (ciprofloxacin 1, nitrofurantoin 2, topotecan 1, sulfasalazine 5 mg/kg), P‐S difference method): 57% and 56.8% | F h [2, 13]: 74.0% | k a [2, 13]: 5.18 h⁻¹ | BA ([2]; Bcrp(−/−) mice, p.o. (ciprofloxacin 1, nitrofurantoin 2, topotecan 1, sulfasalazine 5 mg/kg) vs iv 1 mg/kg): 76.3% | F a F g ([2]; Bcrp(−/−) mice, p.o. (ciprofloxacin 1, nitrofurantoin 2, topotecan 1, sulfasalazine 5 mg/kg), P‐S difference method): 103% | k a, bcrp ([2]; Table 5 summary, Bcrp(−/−) mice, oral administration): 5.18 | (F a F g)bcrp ([2]; as fraction, Bcrp(−/−) mice, oral administration): 1.03 | half-life ([2]; male, Bcrp(−/−) (FVB background), mouse, plasma, iv, 1 mg/kg, Bcrp(−/−) mice, iv 1 mg/kg): 89.4 min | Cmax [2, 14]: 855 nM | Tmax [2, 14]: 4.8 min | Cmax [2, 15]: 476 nM | Tmax [2, 15]: 10.2 min | AUC(0-inf) ([2]; male, FVB Bcrp(−/−), mouse, plasma (systemic, abdominal vein), iv, 1 mg/kg, Bcrp(−/−) mice, iv 1 mg/kg, read-out: AUC 0→∞): 1.49 µM·h | clearance ([2]; male, FVB Bcrp(−/−), mouse, plasma (systemic, abdominal vein), Bcrp(−/−) mice, iv 1 mg/kg, read-out: CL tot (converted)): 24.5 mL/min/kg | Vd ([2]; male, FVB Bcrp(−/−), mouse, plasma (systemic, abdominal vein), Bcrp(−/−) mice, iv 1 mg/kg, read-out: Vdss): 2.21 L/kg | AUC(0-inf) ([2]; male, FVB Bcrp(−/−), mouse, portal vein plasma, po, 1 mg/kg, Bcrp(−/−) mice, p.o. (ciprofloxacin 1, nitrofurantoin 2, topotecan 1, sulfasalazine 5 mg/kg), portal vein (pv) plasma, read-out: AUC 0→∞ (AUCpv)): 1.51 µM·h | AUC(0-inf) ([2]; male, FVB Bcrp(−/−), mouse, portal vein plasma, po, Bcrp(−/−) mice, p.o. (ciprofloxacin 1, nitrofurantoin 2, topotecan 1, sulfasalazine 5 mg/kg), portal vein (pv) plasma, read-out: AUC 0→∞ (AUCpv)): 1.51 µM·h | half-life ([2]; male, FVB Bcrp(−/−), mouse, systemic plasma (abdominal vein), po, 1 mg/kg, Bcrp(−/−) mice, p.o. (ciprofloxacin 1, nitrofurantoin 2, topotecan 1, sulfasalazine 5 mg/kg), systemic (sys) plasma): 88.2 min | AUC(0-inf) ([2]; male, FVB Bcrp(−/−), mouse, systemic plasma (abdominal vein), po, 1 mg/kg, Bcrp(−/−) mice, p.o. (ciprofloxacin 1, nitrofurantoin 2, topotecan 1, sulfasalazine 5 mg/kg), systemic (sys) plasma, read-out: AUC 0→∞ (AUCsys)): 1.14 µM·h | AUC(0-inf) ([2]; male, FVB Bcrp(−/−), mouse, systemic plasma (abdominal vein), po, Bcrp(−/−) mice, p.o. (ciprofloxacin 1, nitrofurantoin 2, topotecan 1, sulfasalazine 5 mg/kg), systemic (sys) plasma, read-out: AUC 0→∞ (AUCsys)): 1.14 µM·h | AUC pv and AUC sys after oral administration, Bcrp(−/−) mice vs WT mice ([2]; oral administration): approximately 3 fold | F h [3, 16]: 54.8% | k a [3, 16]: 3.68 h⁻¹ | BA ([3]; Mdr1a/1b(−/−) mice, p.o. (ciprofloxacin 1, nitrofurantoin 2, topotecan 1, sulfasalazine 5 mg/kg) vs iv 1 mg/kg): 34.9% | F a F g ([3]; Mdr1a/1b(−/−) mice, p.o. (ciprofloxacin 1, nitrofurantoin 2, topotecan 1, sulfasalazine 5 mg/kg), P‐S difference method): 63.8% | k a, P‐gp ([3]; Table 5 summary, Mdr1a/1b(−/−) mice, oral administration): 3.68 | (F a F g)P‐gp ([3]; as fraction, Mdr1a/1b(−/−) mice, oral administration): 0.64 | clearance ([3]; male, FVB Mdr1a/1b(−/−), mouse, plasma (systemic, abdominal vein), Mdr1a/1b(−/−) mice, iv 1 mg/kg, read-out: CL tot (converted)): 35.5 mL/min/kg | Vd ([3]; male, FVB Mdr1a/1b(−/−), mouse, plasma (systemic, abdominal vein), Mdr1a/1b(−/−) mice, iv 1 mg/kg, read-out: Vdss): 2.19 L/kg | AUC(0-inf) ([3]; male, FVB Mdr1a/1b(−/−), mouse, portal vein plasma, po, 1 mg/kg, read-out: AUC 0→∞ (AUCpv)): 0.589 µM·h | AUC(0-inf) ([3]; male, FVB Mdr1a/1b(−/−), mouse, systemic plasma (abdominal vein), po, 1 mg/kg, read-out: AUC 0→∞ (AUCsys)): 0.358 µM·h | half-life ([3]; male, Mdr1a/1b(−/−) (FVB background), mouse, plasma, Mdr1a/1b(−/−) mice, iv 1 mg/kg): 64.8 min | AUC(0-inf) ([3]; male, Mdr1a/1b(−/−) (FVB background), mouse, plasma, Mdr1a/1b(−/−) mice, iv 1 mg/kg, read-out: AUC 0→∞): 1.02 µM·h | Cmax [3, 17]: 664 nM | Tmax [3, 17]: 4.8 min | Cmax [3, 18]: 242 nM | Tmax [3, 18]: 10.2 min | half-life [3, 18]: 73.8 min | blood plasma ratio at 15 min, 1 µg/mL [4]: 0.94 ± 0.05 | human AQBCRP (BCRP [5]): 0.58 | AQ bcrp (in vivo) (BCRP [6]): 0.35 | AQ P‐gp (in vivo) (P‐gp [7]; calculated from k a in WT, Bcrp(−/−) and Mdr1a/1b(−/−) mice (Eq. 10)): 0.08 | R P‐gp (rate of P‐gp contribution) (P‐gp [7]; in vivo (mice), calculated from F a F g in WT, Bcrp(−/−) and Mdr1a/1b(−/−) mice (Eq. 12)): 0.06 | AQp‐gp in vitro (Caco‐2) (P‐gp [8]): 0.14 | BA after oral administration ([9]; human clinical studies): about 40% | human BA ([9]; human): 40% | oral BA, patients heterozygous variant for the BCRP SNP vs normal BCRP ([9]; human): 1.3 fold | BA when GF120918 is orally coadministered ([9]; human, with GF120918 (BCRP inhibitor)): 100%
